In ChEMBL document CHEMBL1156598 (J Med Chem, 2008):

What was measured:
[1] = molecular target: Cytochrome P450 3A4 (Homo sapiens, UniProt P08684); assay: Inhibition of recombinant CYP3A4 expressed in baculovirus-infected insect microsomes; type: ADME, Microsome
[2] = molecular target: T1, Steroid 17-alpha-hydroxylase/17,20 lyase (Homo sapiens, UniProt P05093); assay: Inhibition of human recombinant CYP17 expressed in Escherichia coli coexpressing NADPH-P450 reductase
T1 sequence (P05093 whole entry): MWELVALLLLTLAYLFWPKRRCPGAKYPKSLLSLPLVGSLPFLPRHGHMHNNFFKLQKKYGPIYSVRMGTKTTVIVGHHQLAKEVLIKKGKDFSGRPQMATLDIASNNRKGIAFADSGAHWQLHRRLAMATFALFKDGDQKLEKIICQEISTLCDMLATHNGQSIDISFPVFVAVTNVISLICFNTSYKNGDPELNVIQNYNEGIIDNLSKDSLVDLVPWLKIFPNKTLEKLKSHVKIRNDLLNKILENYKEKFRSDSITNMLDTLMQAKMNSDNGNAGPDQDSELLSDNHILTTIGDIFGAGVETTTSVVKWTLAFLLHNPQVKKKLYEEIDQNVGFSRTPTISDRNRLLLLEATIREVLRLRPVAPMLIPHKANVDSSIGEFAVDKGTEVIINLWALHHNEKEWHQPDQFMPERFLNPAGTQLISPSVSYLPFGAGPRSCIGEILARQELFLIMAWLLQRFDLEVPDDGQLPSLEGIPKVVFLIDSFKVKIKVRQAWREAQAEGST

[3] = molecular target: T2, Cytochrome P450 11B1, mitochondrial (Homo sapiens, UniProt P15538); assay: Inhibition of human CYP11B1 expressed in hamster V79MZh11B1 cells; type: cell-based
T2 sequence (P15538 whole entry): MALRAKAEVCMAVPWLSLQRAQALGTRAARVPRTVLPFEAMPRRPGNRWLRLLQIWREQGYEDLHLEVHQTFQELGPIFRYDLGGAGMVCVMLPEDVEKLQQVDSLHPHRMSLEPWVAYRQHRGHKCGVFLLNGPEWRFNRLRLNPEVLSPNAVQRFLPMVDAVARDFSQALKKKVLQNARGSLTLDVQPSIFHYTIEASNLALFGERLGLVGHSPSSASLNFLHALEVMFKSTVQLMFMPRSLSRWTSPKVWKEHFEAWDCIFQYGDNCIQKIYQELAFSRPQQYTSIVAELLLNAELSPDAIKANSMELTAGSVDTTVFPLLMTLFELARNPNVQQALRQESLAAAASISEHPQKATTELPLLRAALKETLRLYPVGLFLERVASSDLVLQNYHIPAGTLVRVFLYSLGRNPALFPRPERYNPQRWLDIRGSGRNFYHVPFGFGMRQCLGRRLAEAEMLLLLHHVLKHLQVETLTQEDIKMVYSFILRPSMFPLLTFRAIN

[4] = molecular target: T3, Cytochrome P450 11B2, mitochondrial (Homo sapiens, UniProt P19099); assay: Inhibition of human CYP11B2 expressed in hamster V79MZh11B2 cells; type: cell-based
T3 sequence (P19099 whole entry): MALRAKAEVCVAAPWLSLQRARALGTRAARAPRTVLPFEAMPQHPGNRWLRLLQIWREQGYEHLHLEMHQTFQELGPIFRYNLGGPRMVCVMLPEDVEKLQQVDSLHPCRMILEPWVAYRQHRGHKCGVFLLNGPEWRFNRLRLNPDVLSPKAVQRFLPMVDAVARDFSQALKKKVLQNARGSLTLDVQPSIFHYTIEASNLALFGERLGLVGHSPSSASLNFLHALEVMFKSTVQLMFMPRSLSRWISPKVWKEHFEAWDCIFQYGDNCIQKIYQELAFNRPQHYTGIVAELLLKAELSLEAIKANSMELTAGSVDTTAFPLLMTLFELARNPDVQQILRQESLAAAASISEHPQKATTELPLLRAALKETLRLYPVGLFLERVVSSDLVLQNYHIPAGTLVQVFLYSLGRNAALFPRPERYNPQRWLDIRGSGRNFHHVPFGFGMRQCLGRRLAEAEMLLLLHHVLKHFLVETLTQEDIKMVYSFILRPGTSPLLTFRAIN

Sequence of Cytochrome P450 3A4 (P08684 whole entry): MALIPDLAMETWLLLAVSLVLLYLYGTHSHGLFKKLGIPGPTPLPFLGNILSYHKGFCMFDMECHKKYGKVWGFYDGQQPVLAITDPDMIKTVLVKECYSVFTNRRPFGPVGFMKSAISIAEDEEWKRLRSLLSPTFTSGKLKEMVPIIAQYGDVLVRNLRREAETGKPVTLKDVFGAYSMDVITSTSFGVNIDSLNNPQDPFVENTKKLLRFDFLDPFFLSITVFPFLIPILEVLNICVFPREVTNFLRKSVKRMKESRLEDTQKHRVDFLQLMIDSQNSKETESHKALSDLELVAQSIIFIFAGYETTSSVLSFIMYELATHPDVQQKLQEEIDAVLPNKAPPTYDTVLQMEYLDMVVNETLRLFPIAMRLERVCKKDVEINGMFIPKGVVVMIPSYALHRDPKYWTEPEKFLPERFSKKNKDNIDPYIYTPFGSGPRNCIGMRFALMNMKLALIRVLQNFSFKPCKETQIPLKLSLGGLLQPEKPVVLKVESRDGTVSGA

| Compound | IC50 [1] | IC50 [2] | IC50 [3] | IC50 [4] |
| --- | --- | --- | --- | --- |
| OC1(c2ccncc2)CCCc2cc(-c3ccc(F)c(F)c3)ccc21 (stereo unspecified) | 13800 nM |  |  |  |
| COc1ccc(-c2ccc3c(c2)CCCC3(O)c2ccncc2)cc1F (stereo unspecified) | 15200 nM | > 5000 nM | 686 nM | 945 nM |
| Oc1ccc(-c2ccc3c(c2)CCC=C3c2ccncc2)cc1F | 2110 nM | 188 nM | 2750 nM | 991 nM |
| Fc1ccc(-c2ccc3c(c2)CCC3c2cccnc2)cc1 (stereo unspecified) | 1700 nM | > 20000 nM |  |  |
| Fc1ccc(-c2ccc3c(c2)CCC3c2ccncc2)cc1 (stereo unspecified) | 1090 nM | 233 nM | 1080 nM | 543 nM |
| Fc1ccc(-c2ccc3c(c2)CCCC3c2ccncc2)cc1 (stereo unspecified) | 2170 nM | 163 nM | > 5000 nM | 518 nM |
| Oc1ccc(-c2ccc3c(c2)CCCC3c2ccncc2)cc1F (stereo unspecified) | 3390 nM | 64 nM | 1370 nM | 587 nM |
| COc1ccc(-c2ccc3c(c2)CC=C3c2ccncc2)cc1 | 2390 nM |  |  |  |
| Fc1ccc(-c2ccc3c(c2)CCC=C3c2ccncc2)cc1 | 4200 nM |  |  |  |
| Fc1ccc(-c2ccc3c(c2)CCC=C3c2ccncc2)cc1F | 3640 nM | > 5000 nM | > 20000 nM | 311 nM |
| OC1(c2cccnc2)CCc2cc(-c3ccc(F)cc3)ccc21 (stereo unspecified) | > 20000 nM |  |  |  |
| OC1(c2ccncc2)CCc2cc(-c3ccc(F)cc3)ccc21 (stereo unspecified) | 3230 nM |  |  |  |
| COc1ccc(-c2ccc3c(c2)CCC3(O)c2ccncc2)cc1 (stereo unspecified) | 3290 nM |  |  |  |
| OC1(c2ccncc2)CCCc2cc(-c3ccc(F)cc3)ccc21 (stereo unspecified) | 8760 nM | 587 nM | 1160 nM | 840 nM |
| Fc1ccc(-c2ccc3c(c2)CC=C3c2ccncc2)cc1 | 159 nM |  |  |  |
| Oc1ccc(-c2ccc3c(c2)CCCC3c2ccncc2)cc1O (stereo unspecified) | 632 nM |  |  |  |
| Fc1ccc(-c2ccc3c(c2)CC=C3c2cccnc2)cc1 | 6950 nM | 2350 nM |  |  |
| Oc1ccc(-c2ccc3c(c2)CCC=C3c2ccncc2)cc1O | 357 nM |  |  |  |
| COc1ccc(-c2ccc3c(c2)CCC3(O)c2ccncc2)cc1F (stereo unspecified) | 3360 nM | > 10000 nM | 291 nM | 436 nM |
| C[C@]12CC[C@H](O)CC1=CC[C@@H]1[C@@H]2CC[C@]2(C)C(c3cccnc3)=CC[C@@H]12 [ABIRATERONE] |  |  |  | 1750 nM |
